# Key:
# [1] = tested on: PC3 tumors; assay: PC3 xenograft in BALB/c nude mice; type: in vivo, mouse
# Experimental: (§1) BALB/c nude, NSG, and C57BL/6J mice were obtained from Tianjin Medical University. The housing temperature was controlled, ranging from 20.5–24 °C, and humidity was monitored but not controlled ranging from 30–70%. The 12-h daily light cycle was from 06:00 to 18:00. To generate a murine subcutaneous tumor model, PC3 and HSC2 cells were subcutaneously injected into the right lateral flank of 4- to 5-week-old male BALB/c nude mice. TMD8, CAL33, and S24 cells were subcutaneously injected into the right lateral flank of 4- to 5-week-old male NSG mice. When tumors reached a volume of 300–500 mm^3, they were excised, diced into 2 mm × 2 mm × 2 mm pieces, and implanted into the right flanks of BALB/c nude or NSG mice. Tumors were allowed to grow to a volume of 100 mm^3, and then the animals were randomly divided into several groups. Each group of five mice was treated with either vehicle or KTC1101 (25, 50, or 100 mg/kg, PO). Tumor size was measured every 3 d or 4 d until the endpoint. The tumor volume was calculated using the following formula: length × width × height/2. At the end of the experimental period, mice were euthanized by overdosing on pentobarbital sodium, and the tumors were removed. Tumor tissue was formalin-fixed and paraffin-embedded for histological analysis.
# [2] = tested on: PC3 cells gene expression; assay: RNA-Seq (DEGs, GSEA) of PC3 cells; details: 25 nM, 48 h
# [3] = tested on: B16 tumor-bearing C57BL/6 mice; assay: Toxicity and safety profiling in vivo (serum biochemistry, routine blood, H&E); set-up: species or system mouse; details: hematological parameters in the blood
# Experimental: The B16 tumor-bearing C57BL/6 mice were divided into 4 groups randomly (n = 3 per group) and treated with vehicle, KTC1101 (100 mg/kg 3on/4off, PO), anti-PD-1 antibody (250 μg per mouse, IP), or a combination of KTC1101 and anti-PD-1 antibody. After 14 days of treatment, all mice were sacrificed. Blood samples were collected for analysis; one portion was centrifuged (3000 rpm, 4 °C) to obtain serum for biochemical parameter analysis, including alanine aminotransferase (ALT), aspartate aminotransferase (AST), creatinine (CREA), and blood urea nitrogen (BUN). The other portion was used for routine blood examination. Major organs including the heart, liver, spleen, lung, and kidney were collected, sectioned, and stained with H&E for histopathological evaluation.
# [4] = tested on: B16 tumor tissue gene expression; assay: RNA-Seq (DEGs, GSEA, GSVA, CIBERSORT) of B16 tumors after KTC1101; type: in vivo, mouse; details: 100 mg/kg for 3 days
# Description: Total RNA was isolated using TRIzol reagent.
# Cell-type Identification by Estimating Relative Subsets of RNA Transcripts (CIBERSORT) was used to perform a deconvolution analysis of the gene expression matrix based on the principle of linear […]. The CIBERSORT algorithm, with a reference to 511 mouse gene signatures, categorized immune cell populations into seven groups and calculated composition scores: B cells including memory, naive, and plasma cells; CD8^+ T cells including memory, naive, and activated cells; CD4^+ T cells including memory, naive, follicular, Th1, Th2, and Th17 cells; DCs including activated and immature cells; the rest being mast cells, Tregs, and monocytes.
# [5] = biological target: PI3Kβ (PIK3CB/PIK3R1) (Homo sapiens, UniProt P42338); assay: Adapta kinase assay; type: biochemical
# Sequence of PI3Kβ (PIK3CB/PIK3R1) (P42338 whole entry, canonical isoform): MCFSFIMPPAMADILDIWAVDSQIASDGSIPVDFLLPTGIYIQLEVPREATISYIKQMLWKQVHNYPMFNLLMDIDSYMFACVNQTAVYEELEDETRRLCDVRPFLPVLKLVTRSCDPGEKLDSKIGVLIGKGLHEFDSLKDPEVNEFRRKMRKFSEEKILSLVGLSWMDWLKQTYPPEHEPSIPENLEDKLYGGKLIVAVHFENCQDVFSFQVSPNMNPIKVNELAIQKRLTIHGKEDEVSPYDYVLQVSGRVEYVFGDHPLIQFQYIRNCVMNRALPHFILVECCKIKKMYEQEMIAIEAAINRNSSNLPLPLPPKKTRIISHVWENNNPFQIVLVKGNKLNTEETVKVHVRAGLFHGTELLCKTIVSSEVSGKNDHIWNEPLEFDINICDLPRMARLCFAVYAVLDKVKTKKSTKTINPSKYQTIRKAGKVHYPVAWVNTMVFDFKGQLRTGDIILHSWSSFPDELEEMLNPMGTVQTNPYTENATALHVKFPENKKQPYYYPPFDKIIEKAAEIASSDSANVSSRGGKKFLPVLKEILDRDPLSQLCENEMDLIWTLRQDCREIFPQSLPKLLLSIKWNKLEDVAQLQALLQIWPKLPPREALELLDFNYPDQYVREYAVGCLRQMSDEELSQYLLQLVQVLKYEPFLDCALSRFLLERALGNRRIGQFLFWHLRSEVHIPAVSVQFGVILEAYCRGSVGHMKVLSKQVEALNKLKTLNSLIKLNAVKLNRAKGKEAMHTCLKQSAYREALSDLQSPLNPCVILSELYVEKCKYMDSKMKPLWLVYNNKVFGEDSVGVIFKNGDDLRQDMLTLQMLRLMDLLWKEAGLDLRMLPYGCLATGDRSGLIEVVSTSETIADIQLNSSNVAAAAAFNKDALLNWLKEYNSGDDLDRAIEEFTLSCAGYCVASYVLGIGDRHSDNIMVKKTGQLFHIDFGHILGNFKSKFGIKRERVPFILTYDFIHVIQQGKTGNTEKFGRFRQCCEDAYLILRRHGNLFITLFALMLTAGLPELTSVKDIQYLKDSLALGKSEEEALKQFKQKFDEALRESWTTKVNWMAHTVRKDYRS
# Sequence of PI3Kβ (PIK3CB/PIK3R1) (P27986 whole entry partner, canonical isoform): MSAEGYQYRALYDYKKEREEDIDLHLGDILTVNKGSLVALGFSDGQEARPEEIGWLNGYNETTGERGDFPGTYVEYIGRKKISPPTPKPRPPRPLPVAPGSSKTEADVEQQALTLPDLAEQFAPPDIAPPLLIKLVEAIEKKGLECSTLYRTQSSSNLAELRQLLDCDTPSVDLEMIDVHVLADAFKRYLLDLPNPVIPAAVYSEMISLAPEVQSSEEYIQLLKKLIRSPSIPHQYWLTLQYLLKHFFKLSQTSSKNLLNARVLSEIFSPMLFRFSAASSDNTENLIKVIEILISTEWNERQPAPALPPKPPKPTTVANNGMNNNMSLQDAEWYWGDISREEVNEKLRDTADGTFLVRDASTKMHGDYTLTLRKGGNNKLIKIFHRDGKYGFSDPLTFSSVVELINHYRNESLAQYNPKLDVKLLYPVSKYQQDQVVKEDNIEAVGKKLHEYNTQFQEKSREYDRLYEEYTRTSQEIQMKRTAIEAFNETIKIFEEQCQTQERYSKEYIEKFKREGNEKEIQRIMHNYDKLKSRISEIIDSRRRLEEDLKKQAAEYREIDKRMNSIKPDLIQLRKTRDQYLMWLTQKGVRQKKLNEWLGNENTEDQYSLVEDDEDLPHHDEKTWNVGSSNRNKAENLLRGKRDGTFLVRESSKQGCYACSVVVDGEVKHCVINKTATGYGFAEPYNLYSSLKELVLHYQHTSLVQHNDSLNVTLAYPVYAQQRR
# Experimental: Procedures for the preparation of KTC1101 are described in supplemental data. To investigate the PI3K inhibitory efficacy of KTC1101, its impact on the kinase activity of PI3K isoforms was assessed using the Adapta kinase assay as previously reported. Initially, a dilution series of 2.5 µL KTC1101 or DMSO (control) was prepared and added to the respective wells of a 384-well plate. Subsequently, optimized 2.5 µL kinase solutions, including PIK3CA/PIK3R1, PIK3CB/PIK3R1, PIK3CG, and PIK3CD/PIK3R1, were introduced to each well. After adding the kinase solutions, 5 µL ATP and PIP2:PS lipid kinase substrate was introduced into each well and incubated for 1 h at room temperature. This step allows for the initiation and progression of the kinase reaction. Following the incubation, a detection solution (5 µL) was added to all the wells. This solution contained 30 mM EDTA to stop the kinase reaction, 6 nM Eu-labeled anti-ADP antibody, and a 3 × concentration of Alexa Fluor® 647 ADP tracer. The EDTA effectively terminates the kinase reaction, while the anti-ADP antibody and ADP tracer are crucial for the detection of ADP produced during the kinase reaction, which correlates with PI3K activity. The plate was then allowed to equilibrate for 30 min at room temperature, ensuring proper binding of the tracer and antibody to the generated ADP. Finally, the fluorescence of each well was measured using a Multi-Mode Microplate Reader (Spark, Tecan). To ascertain the selectivity of KTC1101 for PI3K isoforms and to rule out off-target effects, a kinase panel comprising 50 kinases was tested against KTC1101. This kinase profiling was conducted by Wuhan Heyan Biomedical Technology Co., Ltd.
# [6] = tested on: PC3, TMD8, HSC2, HSC4, CAL33 cells; assay: Cell proliferation MTT assay, five tumor cell lines; type: cell-based; details: Homo sapiens; cell viability assay; read-out: IC50 range over PC3, TMD8, HSC2, HSC4, CAL33 cells
# Experimental: Cell proliferation was measured by MTT assay as previously described. The cells were seeded in a volume of 200 μL/well in 96-well plates. The next day, cells were treated with DMSO or a series of concentrations of KTC1101. After a 48-h incubation period, 20 μL of MTT (5 mg/mL) was added to each well. After further incubation for 4 h at 37 °C, the absorbance at 490 nm was measured using an iMark microplate reader (BIO-RAD, Hercules, CA, USA).
# [7] = tested on: S24 tumors; assay: S24 tumors in NSG mice; type: in vivo, mouse; details: 100 mg/kg daily oral gavage
# Experimental: as §1
smiles,measurement,setting,value
"COc1cc(N)cc2c1nc(C(F)F)n2-c1nc(N2CCCOCC2)nc(N2CCOCC2)n1 [KTC1101, 2-(difluoromethyl)-4-methoxy-1-(4-morpholino-6-(1,4-oxazepan-4-yl)-1,3,5-triazin-2-yl)-1H-benzo[d]imidazol-6-amine]",tumor growth,[1]; 25 mg/kg PO,significant delay in tumor growth
same,efficacy in inhibiting PC3 tumors,[1]; 50 mg/kg PO,equivalent to 200 mg/kg ZSTK474
same,tumor growth,[1]; 100 mg/kg PO,Tumor growth arrest
same,expression of genes associated with the PI3K/AKT/mTOR pathway (GSEA),[2],reduction in the expression of genes
same,GRAN,[3],0.93±0.67 109L-1
same,MCV,[3],52.90 ± 8.84 fL
same,PLT,[3],745.00±220.75 109L-1
same,RBC,[3],6.03±2.50 1012L-1
same,RDW,[3],17.97±3.41%
same,WBC,[3],3.67±3.06 109L-1
same,"immune-related pathways (GSEA, GSVA)",[4],prominently upregulated
same,IC50,[5],36.3 nM
same,IC50,[6],20 to 130 nM
same,time until tumors started to progress,[7],10 days
